Measurements as given in patent publication US8952021B2, “Compounds for the prevention and treatment of cardiovascular disease” (Resverlogix Corp., priority 2009, dated 2015).

Assays:
ApoA-I mRNA = assay: Quantification of ApoA-I mRNA in HepG2 cells (real-time PCR); assay type: cell-based; design: key: Active: An active compound was defined as one that caused a ≧20% increase in ApoA-I mRNA at a concentration less than or equal to 100 μM; conditions: fold induction relative to DMSO control, concentration less than or equal to 100 μM
Procedure: In this example, ApoA-I mRNA in tissue culture cells was quantitated to measure the transcriptional up-regulation of ApoA-I when treated with a compound of the invention.
HepG2 cells (approximately 2×10^5 per well) were placed in a 24-well plate in approximately 400 μL MEM, supplemented with 0.5% (v/v) FBS, 24 h before addition of the compound of interest. At time of harvesting, the spent media was removed from the HepG2 cells and immediately placed on ice (for immediate use) or at −80° C. (for future use) in ApoA-I and albumin ELISAs. The cells remaining in the plate wells were rinsed in 200 μL PBS. PBS was carefully removed to avoid removing any loosely attached cells.
Once the PBS was removed, 85 μL cell lysis solution was added the cells in each well and incubated for 5-10 minutes at room temperature, to allow for complete cell lysis and detachment. mRNA was then prepared using the “mRNA Catcher PLUS plate” from Invitrogen, according to the protocol supplied. After the last wash, as much wash buffer as possible was aspirated without allowing the wells to dry. Elution Buffer (E3, 80 μL) was then added to each well. mRNA was then eluted by incubating the mRNA Catcher PLUS plate with Elution Buffer for 5 minutes at 68° C. and then immediately placing the plate on ice.
The eluted mRNA isolated was then used in a one-step real-time […] reaction, using components of the Ultra Sense Kit together with Applied Biosystems primer-probe mixes. Real-time PCR data was analyzed, using the Ct values, to determine the fold induction of each unknown sample, relative to the control (that is, relative to the control for each independent DMSO concentration).
An active compound was defined as one that caused a ≧20% increase in ApoA-I mRNA at a concentration less than or equal to 100 μM.

subjects with low HDL-C = conditions: cited from earlier work

Structure (SMILES)	Effect on ApoA-I mRNA levels (ApoA-I mRNA)	melting point [°C]	increase in the HDL-C level (subjects with low HDL-C) [%]	reduction of the CHD risk (subjects with low HDL-C) [%]
Cc1cc(-c2nc3ccccc3c(=O)n2-c2ccc(Cl)cc2)cc(C)c1OCCO [Example 10, 3-(4-chlorophenyl)-2-(4-(2-hydroxyethoxy)-3,5-dimethylphenyl)quinazolin-4(3H)-one]	Active	101 to 103	–	–
CCC(C)c1ccc(-n2c(-c3ccc(OCCO)cc3)nc3ccccc3c2=O)cc1 (centres unmarked) [Example 6, 3-(4-sec-butylphenyl)-2-(4-(2-hydroxyethoxy)phenyl)quinazolin-4(3H)-one]	Active	172.8 to 174.9	–	–
Cc1cc(-c2nc3ccccc3c(=O)n2-c2ccc(F)cc2)cc(C)c1OCCO [Example 7, 3-(4-fluorophenyl)-2-(4-(2-hydroxyethoxy)-3,5-dimethylphenyl)quinazolin-4(3H)-one]	Active	95 to 97	–	–
Cc1cc(-c2nc3c(Cl)cccc3c(=O)n2-c2ccc(Br)cc2)cc(C)c1OCCO [Example 20, 3-(4-bromophenyl)-8-chloro-2-(4-(2-hydroxyethoxy)-3,5-dimethylphenyl)quinazolin-4(3H)-one]	Active	185 to 186	–	–
CCC(C)c1ccc(-n2c(-c3cc(C)c(OCCO)c(C)c3)nc3ccncc3c2=O)cc1 (centres unmarked) [Example 5, 3-(4-sec-butylphenyl)-2-(4-(2-hydroxyethoxy)-3,5-dimethylphenyl)pyrido[4,3-d]pyrimidin-4(3H)-one]	Active	195 to 196	–	–
Cc1ccc(C)c(OCCCC(C)(C)C(=O)O)c1 [gemfibrozil]	–	–	6	22
CCC(C)c1ccc(-n2c(-c3cc(C)c(OCCO)c(C)c3)nc3ccccc3c2=O)cc1 (centres unmarked) [Example 1 and 2, 3-(4-sec-butylphenyl)-2-(4-(2-hydroxyethoxy)-3,5-dimethylphenyl)quinazolin-4(3H)-one]	–	152 to 153	–	–
Cc1cc(-c2nc3ccccc3c(=O)n2-c2ccc(C(C)C)cc2)cc(C)c1OCCO [Example 18, 2-(4-(2-hydroxyethoxy)-3,5-dimethylphenyl)-3-(4-isopropylphenyl)quinazolin-4(3H)-one]	Active	160 to 162	–	–
CCC(C)c1ccc(-n2c(-c3cc(C)c(OCCO)c(C)c3)nc3c(OC)cccc3c2=O)cc1 (centres unmarked) [Example 14, 3-(4-sec-butylphenyl)-2-(4-(2-hydroxyethoxy)-3,5-dimethylphenyl)-8-methoxyquinazolin-4(3H)-one]	Active	158 to 159	–	–
Cc1cc(-c2nc3ccccc3c(=O)n2-c2ccc(Br)cc2)ccc1OCCO [Example 19, 3-(4-bromophenyl)-2-(4-(2-hydroxyethoxy)-3-methylphenyl)quinazolin-4(3H)-one]	Active	92 to 93	–	–
CCC(C)c1ccc(-n2c(-c3cc(C)c(OCCO)c(C)c3)nc3ccc(S(C)(=O)=O)cc3c2=O)cc1 (centres unmarked) [Example 15, 3-(4-sec-butylphenyl)-2-(4-(2-hydroxyethoxy)-3,5-dimethylphenyl)-6-(methylsulfonyl)quinazolin-4(3H)-one]	Active	258.8 to 260.2	–	–
Cc1cc(-c2nc3ccccc3c(=O)n2-c2ccc(I)cc2)cc(C)c1OCCO [Example 8, 2-(4-(2-hydroxyethoxy)-3,5-dimethylphenyl)-3-(4-iodophenyl)quinazolin-4(3H)-one]	Active	101 to 103	–	–
Cc1cc(-c2nc3ccccc3c(=O)n2-c2ccc(Br)cc2)cc(C)c1OCCO [Example 3, 3-(4-bromophenyl)-2-(4-(2-hydroxyethoxy)-3,5-dimethylphenyl)quinazolin-4(3H)-one]	Active	164 to 165	–	–
COc1ccc2nc(-c3cc(C)c(OCCO)c(C)c3)n(-c3ccc(Br)cc3)c(=O)c2c1 [Example 16, 3-(4-bromophenyl)-2-(4-(2-hydroxyethoxy)-3,5-dimethylphenyl)-6-methoxyquinazolin-4(3H)-one]	Active	160 to 162	–	–
COc1cccc2c(=O)n(-c3ccc(Br)cc3)c(-c3cc(C)c(OCCO)c(C)c3)nc12 [Example 17, 3-(4-bromophenyl)-2-(4-(2-hydroxyethoxy)-3,5-dimethylphenyl)-8-methoxyquinazolin-4(3H)-one]	Active	100 to 102	–	–
CCC(C)c1ccc(-n2c(-c3cc(C)c(OCCO)c(C)c3)nc3ccc(OC)cc3c2=O)cc1 (centres unmarked) [Example 13, 3-(4-sec-butylphenyl)-2-(4-(2-hydroxyethoxy)-3,5-dimethylphenyl)-6-methoxyquinazolin-4(3H)-one]	Active	152 to 154	–	–
CCC(C)c1ccc(-n2c(-c3cc(C)c(OCCO)c(C)c3)nc3cc(S(C)(=O)=O)ccc3c2=O)cc1 (centres unmarked) [Example 12, 3-(4-sec-butylphenyl)-2-(4-(2-hydroxyethoxy)-3,5-dimethylphenyl)-7-(methylsulfonyl)quinazolin-4(3H)-one]	Active	235 to 237	–	–
CCC(C)c1ccc(-n2c(-c3ccc(Oc4ccccc4)nc3)nc3ccccc3c2=O)cc1 (centres unmarked) [Example 52, 3-(4-sec-butylphenyl)-2-(6-phenoxypyridin-3-yl)quinazolin-4(3H)-one]	Active	–	–	–
CCC(C)c1ccc(-n2c(-c3ccc4[nH]c(CO)cc4c3)nc3ccccc3c2=O)cc1 (centres unmarked) [Example 82, 3-(4-sec-butylphenyl)-2-(2-(hydroxymethyl)-1H-indol-5-yl)quinazolin-4(3H)-one]	Active	–	–	–
Cc1cc(-c2nc3ccccc3c(=O)n2-c2ccc(C(C)(C)C)cc2)cc(C)c1OCCO [Example 22, 3-(4-tert-butylphenyl)-2-(4-(2-hydroxyethoxy)-3,5-dimethylphenyl)quinazolin-4(3H)-one]	Active	–	–	–
O=c1c2ccccc2nc(-c2cncc(-c3ccccc3)c2)n1-c1ccc(Cl)cc1 [Example 60, 3-(4-chlorophenyl)-2-(5-phenylpyridin-3-yl)quinazolin-4(3H)-one]	Active	–	–	–
CCC(C)c1ccc(-n2c(-c3cc(C)c(OCCO)c(C)c3)nc3cc(F)ccc3c2=O)cc1 (centres unmarked) [Example 4, 3-(4-sec-butylphenyl)-7-fluoro-2-(4-(2-hydroxyethoxy)-3,5-dimethylphenyl)quinazolin-4(3H)-one]	Active	–	–	–
